According to patent US8207344B2, “GPR119 agonists” (Eli Lilly and Company, priority 2009, dated 2012):
Each block holds one compound with its values, some of them ahead of it.

Experiments:
[1] = test system: GLUTag cells; test: Glucagon-like peptide 1 secretion in GLUTag cells; assay type: cell-based, murine; details: Mus musculus, 2 h at 37 C, 5 mM glucose, read-out: EC50 (agonist concentration that gives 50% increase in GLP-1)
Experimental: Effects of GPR119 agonists on glucagon-like peptide 1 (GLP-1) secretion are determined in vitro in GLUTag cells. GLUTag cells are an immortalized murine intestinal enteroendocrine cell line that express the preproglucagon gene and secrete GLP-1 in a regulated manner (Brubaker P L, Schloos J, Drucker D J. Regulation of glucagon-like peptide-1 synthesis and secretion in the GLUTag enteroendocrine cell line. Endocrinology. 1998 139:4108-14). To measure GLP-1 secretion, 15,000 cells/well are seeded in 96-well-plate and incubated for 3 days in DMEM supplemented with 10% FBS and 1% Glutamine. On the day of the experiment, cells are washed twice with the incubation buffer, EBSS supplemented with 5 mM glucose and 0.1% BSA. 150 μL of the incubation buffer containing test compounds is added to each well and cells are incubated at 37° C. for 2 h. After incubation, the supernatant is collected and filtered using 96-well-filter-plates. GLP-1 content in the filtrate is determined with the Mouse/Rat Total GLP-1 Assay (Meso Scale Discovery). The potency of the GPR119 agonists to stimulate GLP-1 secretion is determined as the agonist concentration that gives 50% increase in GLP-1 (EC50).

[2] = target: T1, human GPR119 (Homo sapiens, UniProt Q8TDV5); test: Human GPR119 activity assay (cAMP HTRF in 293 T-REx cells expressing hGPR119); assay type: cell-based; details: 293 T-REx cells expressing hGPR119, cAMP HTRF, 1 h incubation; read-out: EC50 (agonist concentration that gives 50% activation of the hGPR119 mediated cAMP increase)
T1 construct: expressed in transfected cells
T1 sequence (Q8TDV5 1-335): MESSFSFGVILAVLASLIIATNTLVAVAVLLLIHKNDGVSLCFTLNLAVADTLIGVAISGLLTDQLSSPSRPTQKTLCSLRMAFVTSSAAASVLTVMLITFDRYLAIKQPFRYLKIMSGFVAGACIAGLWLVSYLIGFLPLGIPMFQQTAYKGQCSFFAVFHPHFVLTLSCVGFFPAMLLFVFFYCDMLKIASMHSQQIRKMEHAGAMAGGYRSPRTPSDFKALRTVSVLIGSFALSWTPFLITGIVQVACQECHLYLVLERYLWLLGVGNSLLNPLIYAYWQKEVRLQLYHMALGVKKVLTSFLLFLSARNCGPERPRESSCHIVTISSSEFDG
Experimental: A stable cell line expressing human GPR119 off an inducible promoter is generated in 293 T-REx™ cells (Invitrogen). T-REx™ (Tetracycline-Regulated Expression) cell line stably expresses the tetracycline repressor protein and, therefore, allow for inducible expression of the gene of interest (GPR119) with doxycycline. Agonists to the human GPR119 receptor are characterized by measuring increases in the cAMP levels in 293 T-REx™ cells expressing hGPR119. 10,000 cells/well are seeded into a 96-well plate and cultured for 24 h in DMEM supplemented with 10% fetal bovine serum, 15 μg/mL Blasticidin and 200 μg/mL Hygromycin B. Next day, cells are stimulated with 1 ng/mL Doxycycline in DMEM with no further addition of Hygromycin B and Blasticidin. cAMP assay is performed after 18 h incubation with doxycycline. cAMP is determined using the cAMP HiRange HTRF assay (Cisbo International). Cells are washed with PBS and pre-incubated for 15 min with PBS supplemented with 2 mM glucose, 0.25 mM IBMX and 0.1% BSA. Test compounds diluted in the pre-incubation buffer are added and cells are further incubated at room temperature for 1 h. Incubation is stopped by addition of HTRF reagents diluted in the lysis buffer, followed by incubation for 1 h and measurements of fluorescence at […]. The potency of the agonists is determined as the agonist concentration that gives 50% activation of the hGPR119 mediated cAMP increase (EC50).

[3] = Oral bioavailability in Sprague-Dawley rats; assay type: in vivo; details: male, rat, plasma, 1 mg/kg IV, 3 mg/kg oral gavage
Source text: (§1) Methods for accessing oral bioavailability are well appreciated in the art. One such reference is Medicinal Research Reviews Vol 21 No. 5 382-396 (2001). The oral bioavailability of compounds of the present invention may be estimated essentially as follows.
(§2) Cohorts of three 250-400 gram male Sprague-Dawley rats or approximately 10 kg Beagle dogs (female or male) are used. […] Dogs are IV administered the compounds by cannulated cephalic vein and blood collections are by jugular vein. Animals are first IV dosed at 1 mg/kg and blood samples (0.1 to 0.2 mL) are then collected using EDTA as an anticoagulant at 0.0830, 0.25, 0.50, 1, 2, 4, 8, 12, and 24 h. After at least two days and overnight fasting, the animals are dosed at 3 mg/kg by oral gavage. Blood samples (0.1 to 0.2 mL) are then collected using EDTA as an anticoagulant at 0.25, 0.50, 1, 2, 4, 6, 8, 12, and 24 h. During the course of a study the total of blood (mL) collected is not to exceed 1% of total body weight in grams.
(§3) Compound plasma concentrations are measured by LC/MS/MS assays. Data are then analyzed using standard non-compartmental pharmacokinetic analysis. Oral bioavailability is calculated as: (AUC0-inifinity, oral/AUC0-inifinity, IV)×(Dose, IV./Dose, oral)×100%

[4] = test system: total GIP; test: Mouse Gastric Inhibitory Polypeptide (GIP) assay; assay type: in vivo; details: male C57BL/6 mice, 0.5-6 h
Experimental: Male C57BL/6 mice (8-10 weeks of age, n=20/dose level, n=5/time point) are fasted overnight (16 hr), weighed the following morning, and then orally dosed with vehicle (1% HEC) or various doses of test article at 5 mL/kg. Animals are euthanized by CO2 asphyxiation for 1 minute, and then blood is collected by cardiac puncture at various times (0.5, 1.5, 3, and 6 h post compound dose) into EDTA plasma tubes containing 10 μL/mL DPP4 inhibitor (Millipore, DPP4-010) and 1.1×10^5 KIU/mL aprotinin. Blood samples are kept on ice until plasma is separated by centrifugation at 3000×g for 5 min. Resulting plasma samples are placed into 96-well plates and stored at −20° C. until analyzed. Measurements of total GIP (measured by Millipore kit EZRMGIP-55K) are performed for each time-point. For each treatment group, the AUC for GIP is determined by applying the trapezoid rule to the timepoint-specific average GIP levels. Potencies were estimated using piecewise linear interpolation across the collection of calculated GIP AUCs above vehicle from a dose response study. Compound potency is defined as the dose and/or concentration of compound that yielded an increase of 350 pg*hr/mL above the vehicle group GIP AUC over the timecourse of the experiment.

[5] = test system: Diet-Induced Obese (DIO) mice; test: Chronic treatment of Diet-Induced Obese (DIO) mice; assay type: in vivo, C57/BL6 mice; details: 30 mg/kg once daily, 3 weeks
Experimental: DIO male C57/BL6 mice are maintained on a calorie-rich diet and have free access to food and water for at least 2 weeks before randomization into groups by weight (n=8) and treatment. Animals are individually housed in a temperature-controlled (24° C.) facility with 12 hour light, 12 hour dark cycle. Body weights range from 34-40 g. Mice are administrated once daily vehicle (1% HEC), 30 mg/kg GPR119 agonist, 30 mg/kg DPPIV inhibitor or a combination of 30 mg/kg GPR119 agonist and 30 mg/kg DPPIV inhibitor. Treatment continues for 3 weeks. Food and body weights are recorded daily before dark photoperiod. Cumulative body weight change is calculated as the daily body weight minus body weight before treatment for each animal and presented as an average for the group. Food intake is measured daily for each animal and combined with the total amount of food consumed by that animal from all previous days to yield cumulative food intake, which is then averaged for the group. At the end of the study OGTT is performed after overnight fasting.

[6] = Oral bioavailability in Beagle dogs; assay type: in vivo; details: dog, plasma, 1 mg/kg IV, 3 mg/kg oral gavage
Source text: as §1, §2, §3

[7] = test system: plasma glucose; test: Mouse Oral Glucose Tolerance Test (OGTT); assay type: in vivo, C57BL/6 mice
Experimental: Normal C57BL/6 mice are fasted overnight, randomized into groups (n=6) and orally dosed with vehicle (1% HEC, 0.25% tween 80, 0.05% antifoam) or 0.9, 2, 6 and 18 mg/kg GPR119 agonist suspended in vehicle. 30 minutes after the compound is administered, mice are dosed orally with a 50% dextrose solution at 3 g/kg. At various times (0, 20, 40, or 60 minutes post glucose), the mice are restrained in cotton gloves or paper towels and 1 mm or less of the tail is cut. A small drop of blood is placed onto Accu-Chek® glucometers (Roche model 22-044217) for glucose measurements. Three glucometers are used to read glucose in each collected sample, with the median value being reported as the final glucose value. Area under the plasma glucose curve (glucose AUC) is calculated for each group and the percentage decrease in the glucose AUC versus the control group is used as a measure of efficacy of the compound to decrease plasma glucose.

[8] = oral dosing 30 min before 3 g/kg dextrose, normal C57BL/6 mice

EC50 [1]: 36.8 nM
SMILES: CC(F)(F)CN1CCC(COc2ccc(C3=CCN(S(C)(=O)=O)CC3)cc2)CC1 [Example 9, 4-{4-[1-(2,2-Difluoro-propyl)-piperidin-4-ylmethoxy]-phenyl}-1-methanesulfonyl-1,2,3,6-tetrahydro-pyridine]

EC50 [2]: 2.13 nM
SMILES: CC(C)(F)CN1CCC(COc2ccc(C3=CCN(S(C)(=O)=O)CC3)cc2F)CC1 [Example 7, 4-{3-Fluoro-4-[1-(2-fluoro-2-methyl-propyl)-piperidin-4-ylmethoxy]-phenyl}-1-methanesulfonyl-1,2,3,6-tetrahydro-pyridine]

EC50 [2]: 4.61 nM
SMILES: CS(=O)(=O)N1CC=C(c2ccc(OCC3CCN(CC4(F)CCCC4)CC3)cc2)CC1 [Example 1, 4-{4-[1-(1-Fluoro-cyclopentylmethyl)-piperidin-4-ylmethoxy]-phenyl}-1-methanesulfonyl-1,2,3,6-tetrahydro-pyridine]

EC50 [1]: 62.7 nM
bioavailability [6]: 90%
EC50 [2]: 0.95 nM
SMILES: CC(C)(F)CN1CCC(COc2ccc(C3=CCN(S(C)(=O)=O)CC3)nc2)CC1 [Example 6, 5-[1-(2-Fluoro-2-methyl-propyl)-piperidin-4-ylmethoxy]-1′-methanesulfonyl-1′,2′,3′,6′-tetrahydro-[2,4′]bipyridinyl]
body weight [5]: mild decrease
food intake [5]: mild decrease
plasma glucose levels ([5]; OGTT at end of study): did not significantly modify
increase in GIP AUC over vehicle ([4]; 1.6 mg/kg oral dose): 422 pg·h/mL
ED50 ([7]; Mus musculus, oral, doses 0.9, 2, 6 and 18 mg/kg, normal C57BL/6 mice, read-out: ED50 (dose which produces a 50% decrease in glucose area under the curve)): 0.4 mg/kg
glucose tolerance [7, 8]: improved glucose tolerance
postprandial plasma glucose [7, 8]: significantly decreased
fasting plasma glucose ([7]; oral dosing, normal C57BL/6 mice fasted overnight): did not influence

Further lines, the compound ahead of its results:

SMILES: CS(=O)(=O)N1CC=C(c2ccc(OCC3CCN(CC4(C(F)(F)F)CC4)CC3)cc2)CC1 [Example 10, 1-Methanesulfonyl-4-{4-[1-(1-trifluoromethyl-cyclopropylmethyl)-piperidin-4-ylmethoxy]-phenyl}-1,2,3,6-tetrahydro-pyridine]
EC50 [2]: 0.95 nM
bioavailability [3]: 53%
increase in GIP AUC over vehicle ([4]; 10 mg/kg oral dose): 762 pg·h/mL

SMILES: CC(C)(CN1CCC(COc2ccc(C3=CCN(S(C)(=O)=O)CC3)nc2)CC1)C(F)(F)F [Example 3, 1′-Methanesulfonyl-5-[1-(3,3,3-trifluoro-2,2-dimethyl-propyl)-piperidin-4-ylmethoxy]-1′,2′,3′,6′-tetrahydro-[2,4′]bipyridinyl]
increase in GIP AUC over vehicle ([4]; 10 mg/kg oral dose): 762 pg·h/mL

SMILES: CC(Oc1ccc(C2=CCN(S(C)(=O)=O)CC2)cc1)C1CCN(CC(C)(C)F)CC1 (single isomer, unassigned) [Example 8, 4-(4-{1-[1-(2-Fluoro-2-methyl-propyl)-piperidin-4-yl]-ethoxy}-phenyl)-1-methanesulfonyl-1,2,3,6-tetrahydro-pyridine]
EC50 [2]: 1.1 nM

SMILES: N[C@@H](CC(=O)N1CCn2c(nnc2C(F)(F)F)C1)Cc1cc(F)c(F)cc1F [Sitagliptin, sitagliptin, reference compound]
body weight [5]: did not alter
food intake [5]: did not alter
